Broadly, the melting point is the temperature, or range, at which the solid turns liquid. Turning to `CN(C)C1CCC(Nc2nc3cc4c(cc3nc2-c2ccccn2)CCC4)CC1` (stereo not given), the melting point lay within 158 to 161 °C.

`BrCCc1ccc([Si](c2ccccc2)(c2ccccc2)c2ccc(CCBr)cc2)cc1` displayed a melting point of 220 °C.

Turning to `CCNC(=O)N1CCN(c2ccccc2C(C)(C)C)CC1`, the melting point lay within 196 to 198 °C.

As for `N=C(N)c1ccc(C(=O)NCCCCC(=O)NC(CC(=O)O)C(=O)NC(Cc2ccccc2)C(=O)O)cc1` (stereo not given), the melting point fell in the range of 169 to 171 °C.

For the compound `Nc1cccc(C(=O)Nc2ccc(-c3c[nH]c(=O)cn3)cc2)c1`, the melting point was more than 250 °C.

For the compound `O=C(O)c1ccc(OCCCON=Cc2cc3ccccc3n2Cc2ccccc2)c(-c2ccc(C(F)(F)F)cc2)c1`, the melting point was 196 to 197 °C.

`CC1(C)OC(=S)Nc2ccc(-c3coc(C#N)c3)cc21`: the melting point was in the range of 214 to 216 °C.

Compound `c1ccc2c(c1)OCCc1c-2n(CCCN2CCCCC2)c2ccccc12` registered a melting point of 65 to 66 °C.

The compound `CCON=C(CC)C1=C(OC(=O)c2ccc(Cl)cc2)CC(C)(C)CC1=O` registered a melting point of 60 to 62 °C.

`CC(=O)Nc1cccc(-c2nc3ncccc3[nH]2)c1` returned a melting point of more than 250 °C.

As to `Cc1cc(=O)c(OCc2ccccc2)c(CO)o1`, the melting point was 115 to 116 °C.

`N#Cc1ccc(Cn2cncn2)cc1-c1ccc(OS(N)(=O)=O)c(Cl)c1` registered a melting point of 133 to 136 °C.

Take `COc1cc2cc3c(Nc4ccc(F)c(Cl)c4)c(C#N)cnc3cc2cc1OCCCl`: the melting point was 137 to 159 °C.

`Fc1ccccc1Cn1c(-c2ccc3c(c2)OCO3)nc2ccccc21` yielded a melting point of 149 to 150 °C.

As for `OCCOCCNCc1ccc(-c2cc3ncnc(Nc4ccc5[nH]ccc5c4)c3s2)cc1`, the melting point is 111 to 119 °C.

As to `C=CCn1c(C)nc2c3c(ccc21)[C@@H](OCCF)[C@H](OC(=O)C(C)(C)C)[C@@H](c1ccccc1)O3`, the melting point worked out at 119 °C.

The compound `Cc1oc(-c2ccccc2)nc1COc1ccc(Cn2cc(C(=O)O)c(-c3cccs3)n2)cc1` gave a melting point of 204 to 205 °C.

`O=C(Cn1ncc(-c2ccccc2)c1-c1ccccc1)NCCCO` returned a melting point of 138 to 139 °C.

`CC(C)(F)Cn1c(CO)nc2c(N)nc3cccnc3c21`: the melting point fell in the range of 240 to 241 °C.

With `CC(C)C(C#N)Nc1ccc(C(F)(F)F)cc1Cl` (stereo not given), the melting point was in the range of 63.2 to 64.8 °C.

For `CC1(C)CCCN(C(=O)c2ccccc2NC(=O)CN2C(=O)c3ccccc3C2=O)C1`, the melting point came to 158 °C.

Compound `COc1ccc([N+](=O)[O-])c(C=C[N+](=O)[O-])c1OCc1ccccc1` returned a melting point of 118 to 119 °C.

In turn, `COc1ccc(-c2cccc(OC3SCC(O)C(O)C3O)c2)cn1` (stereo not given) returned a melting point of 174 °C.

As for `Cc1ccc2c(c1)C=Cc1cc(C)ccc1C2c1cn(Cc2ccc(C(=O)Nc3nc(CC(=O)O)cs3)o2)c(=O)[nH]c1=S`, the melting point was found to be 210 °C.

Take `CC1CC(Nc2nnc(-c3cccc(Oc4ccc(C(C)(C)C)cc4)c3)s2)CC(C)(C)C1` (stereo not given): the melting point lay in the range of 166 to 167 °C.

`CN1CCN(CCCNc2ncc3cc(-c4c(Cl)cccc4Cl)c(=O)n(C)c3n2)CC1` came in with a melting point of 170 to 172 °C.

On to `O=c1ccc2nc3ccccc3sc-2c1Cl`, for which the melting point amounted to 221 °C.

In turn, `CC(C)(C)OC(=O)N1CCN(c2ccc(N)cc2C#N)CC1` displayed a melting point of 145 °C.

`O=C1c2nccc([N+](=O)[O-])c2-c2nc3ccccc3c3ccnc1c23` came in with a melting point of more than 260 °C.

In turn, `Oc1ccccc1C=C1c2ccccc2CCc2ccccc21` yielded a melting point of 56.9 °C.

Take `Cc1c(-c2c(C)c3ccccc3n2S(=O)(=O)c2ccccc2)n(S(=O)(=O)c2ccccc2)c2ccccc12`: the melting point was found to be 224 °C.

`C[C@@H]1Cc2cc(N3C[C@H](COS(C)(=O)=O)OC3=O)ccc2N1C(=O)OCc1ccccc1` displayed a melting point of 72 to 73 °C.

Regarding `OC(CCc1ccccc1)c1cnc2sc3cc(F)ccc3n12` (stereo not given), the melting point was 195 to 196 °C.

In turn, `NN1C(=O)c2ccc(Cl)cc2C1=O` gave a melting point of 172 to 175 °C.

`COc1cccc([N+](=O)[O-])c1N` came in with a melting point of 67 to 68 °C.

In the case of `COC(C)(CC(=O)Nc1ccccc1)OC`, the melting point is 80 °C.

As for `FC(F)(F)c1ccc(-c2cc(Cl)ncn2)cc1`, the melting point lay within 227 to 230 °C.

In the case of `COc1ccc(C(=O)C=Cc2c(O)cc(OCCBr)cc2O)cc1O`, the melting point lay in the range of 158 to 162 °C.

The compound `CCCOc1oc(=O)c2cc(NC(=O)NCC)ccc2c1Cl` registered a melting point of 189 to 191 °C.

As for `COc1ccc2c(c1)C(CC(=O)O)CCO2` (stereo not given), the melting point lay in the range of 80 to 83 °C.

Turning to `COCCC1(C(=O)N[C@@H](Cc2ccc(N3C(=O)c4cccc(C#N)c4C3=O)cc2)C(=O)OC)CCCC1`, the melting point was 122 to 126 °C.

In the case of `CCOCc1nc2c(N)nc3ccccc3c2n1CCCc1cc(C)no1`, the melting point fell in the range of 163 to 164 °C.

`CN(c1cccc2cc(C3=NCC(CC(=O)NCCO)S3)[nH]c12)S(=O)(=O)c1cccs1` (stereo not given) registered a melting point of 214 °C.

For `COCCn1ccc2cc(NC(=O)/C=C/c3ccc(C(C)(C)C)cc3)ccc21`, the melting point is 138 °C.

As to `O=C1Nc2cc(F)ccc2Nc2ccsc21`, the melting point fell in the range of 225 to 230 °C.

Compound `COc1ccc(C(=O)O)nc1OC1CCCC1` gave a melting point of 96 to 99 °C.

For the compound `CC(C)(C)OC(=O)N1CCC(c2ccc(N3C[C@H](CN=[N+]=[N-])OC3=O)cc2F)CC1`, the melting point was 109 to 110 °C.

`CCC(C)C(=O)c1nc(C)nc2c1c(C)c(C)n2-c1c(C)cc(C)cc1C` (stereo not given) had a melting point of 133 to 135 °C.

In the case of `Cc1ccc(C)c(OCCO)c1`, the melting point was in the range of 45 to 48 °C.

In turn, `COc1ccc(-c2cccc(COCCc3cccc(NS(=O)(=O)C(F)(F)F)c3)c2)cc1` came in with a melting point of 88 to 90 °C.

Regarding `Cc1ccc(-c2ccc3c(c2)C=C(C(=O)Nc2ccc(CO)cc2)CC3)cc1`, the melting point lay in the range of 219 to 220 °C.

For `CC1(C2Cc3ccccc3O2)CCCCC1` (stereo not given), the melting point was in the range of 60 to 63 °C.

The compound `CCN(CC)CCOc1ccc(Nc2ncc3c(n2)N(C)C(=O)N(C(C)C)C3)cc1` displayed a melting point of 154 °C.

Regarding `CCCCC(=O)NCCCSCCO`, the melting point was determined as 7 °C.

In turn, `N[C@@H](CC1CCCCC1)[C@@H](O)[C@@H]1CCCS1` showed a melting point of 58 to 59 °C.

As to `CCOC1c2ccccc2-c2[nH]c(=O)c(=O)[nH]c21` (stereo not given), the melting point is more than 300 °C.

For `O=C1N[C@H](C(=O)NCCCCO[N+](=O)[O-])CS1`, the melting point was 68 to 70 °C.

`Cn1cc(C2=C(c3cn(C)c4cc(CC#N)ccc34)C(=O)NC2=O)c2ccccc21` yielded a melting point of 225 to 226 °C.

Regarding `Cc1ccc(-n2c(=O)c3c(N4CCNCC4)cc(Cl)cc3n(Cc3ccccc3)c2=O)cc1`, the melting point is 120 to 124 °C.

In turn, `c1ccc(Nc2ccc(-c3ccc(N(c4ccccc4)c4ccccc4)cc3)cc2)cc1` came in with a melting point of 168 °C.

Compound `CCn1nc(C)c(NC(N)=S)c1C` gave a melting point of 248 °C.

As for `Nc1nc(N)nc(C2CC3CCC2C3)n1` (stereo not given), the melting point fell in the range of 216 to 217 °C.

For `CCc1noc2cc(-c3ccccc3)n(C)c(=O)c12`, the melting point was in the range of 167 to 169 °C.

`CC1(C)SC(=NO)NC1=O` gave a melting point of 198 to 200 °C.

For the compound `Cc1ccc(-c2ccccc2CC(N)=NO)cc1`, the melting point lay in the range of 127 to 128 °C.

`ClCc1ccc2c(c1)Nc1nccnc1S2` returned a melting point of 161 to 162 °C.

The compound `C=CCC(C#N)(C#N)Cc1ccc([N+](=O)[O-])cc1` gave a melting point of 94.2 °C.

`COc1cc(Br)c(I)cc1OC`: the melting point was in the range of 98 to 100 °C.

In turn, `CC1(C)CCC(C)(C)c2cc(CC#Cc3ccc(C(=O)Nc4ccc(O)cc4)cc3)ccc21` had a melting point of 159 to 160 °C.

In the case of `O=C(O)c1nc2n(c(=O)c1OCc1ccccc1)CCOC2`, the melting point came to 171 °C.

Compound `N=C1c2c(F)cccc2S(=O)(=O)N1CC1CC1` came in with a melting point of 90 to 93 °C.

The compound `OCCn1cnc2c(NCCN3CCC(Nc4nc5ccccc5n4Cc4ccc(F)cc4)CC3)ncnc21` came in with a melting point of 169 °C.

`CCN(C(=O)c1cc(N(C)C)ccc1[Si](C)(C)C)C(OC)C(C)(C)C` (stereo not given): the melting point fell in the range of 96 to 98 °C.

The compound `NC(CCOS(=O)(=O)c1ccccc1)C(=O)Nc1ccccc1` (stereo not given) registered a melting point of 89 °C.

`CC1CCCC(C)N1Cc1ccc2cc(NC(=O)c3ccc(-c4ccc(F)cc4)cc3)ccc2n1` (stereo not given) displayed a melting point of 187 to 188 °C.

Regarding `COn1cc(C(=O)O)c(=O)c2cc3cc(F)c(F)cc3nc21`, the melting point lay within 325 to 327 °C.

Regarding `COc1cc(Oc2ccc(S(C)(=O)=O)nc2)cc2cc(C3=NCC(CC(=O)NC4CC4)S3)[nH]c12` (stereo not given), the melting point was 248 to 249 °C.

In turn, `Cc1cc(C)c(-n2ccc3c(=O)[nH][nH]c(=O)c32)c(C)c1` showed a melting point of more than 300 °C.

As for `CC1(CC(=O)O)CCc2ccccc2C1=O` (stereo not given), the melting point lay within 114 to 116 °C.

Turning to `N#CC(c1ccccc1)(c1ccccc1)C1CCCN(CCc2ccc(Cl)c(Cl)c2)C1` (stereo not given), the melting point fell in the range of 139 to 142 °C.

Compound `CCC(=O)C(O)(Cc1ccc(C)cc1)c1ccc(N2CCOCC2)cc1` (stereo not given) showed a melting point of 160 °C.

In the case of `CCOC(=O)Cc1cccc(N)n1`, the melting point lay in the range of 66 to 68 °C.

`CCCCCCCCCCCCCCCCCCOc1ccc(C(=O)O)c(OCCCOc2ccc(OCc3ccccc3)cc2)c1` showed a melting point of 102 to 104 °C.

The compound `Cc1ccc2c(c1)Cn1nnnc1C(=O)N2` registered a melting point of 244 to 247 °C.

In turn, `COC(=O)/C=C/[C@@H](c1ccc2ccccc2c1)c1cccc2c1ccn2C(=O)OC(C)(C)C` showed a melting point of 75 to 78 °C.

In turn, `Brc1ccc(C2=CCN(CCSCc3c[nH]c4ccccc34)CC2)cc1` had a melting point of 166 to 167 °C.

`COC(=O)C=Cc1ccc(OCC(C)=O)cc1` gave a melting point of 117 to 118 °C.

For `O=C(NCc1ccc(Cl)cc1)c1cc(Br)c2cccnc2c1O`, the melting point fell in the range of 148 to 151 °C.

The compound `CC12CCC(C(=O)N(CCCCN3CCN(c4ccccn4)CC3)C1=O)C2(C)C` (stereo not given) came in with a melting point of 96 to 97 °C.

Compound `N#Cc1cccc(-c2ccc3c(c2)C2(CCCCC2)C(=NO)N3)c1` gave a melting point of 198 to 200 °C.
